Data taken from US20070264680A1, “Method and Test-Kit for the Detection and Quantification of Organisms” (PROTEUS S.A., priority 2004, published 2007).

Tests used:
[1] = test system: benchmark bacterial strain having an esterase activity; assay: Microbial decontamination efficiency of cleaning substances on contaminated plastic surfaces (esterase activity of swab); assay type: cell-based; settings: remaining esterase activity after cleaning the plastic surface with an impregnated wipe; optical density at 414 nm; not cleaned: 3.474
Procedure: For this purpose, a benchmark bacterial strain having an esterase activity (isolated by traditional microbiological methods from samples collected from human foreheads) has been used to artificially contaminated surfaces. This strain has been prepared by an overnight incubation at 37° C. in LB medium. 200 μL of this cell preparation, corresponding to 6.107 cfu have been spread on five plastic surfaces and allowed to dry completely.
Samples have then been collected onto the different plastic surfaces using swabs beforehand impregnated with PBS containing 0.1% w/v of Triton X100. 16 μL of the transformable substrate (2-hydroxy-4-p-nitrophenoxy-butyl hexanoate 20 mM in DMSO) have been mixed with 184 μL of aqueous PBS buffer 0.1M pH7.3. The swab has been plunged in this mix and incubated for 1 h at 37° C. The swab has then been removed from the reaction mixture and 100 μL have been transferred to another vial. 4 μL of bovine serum albumin 50 mg/mL in water, 40 μL NaIO4 100 mM in water and 40 μL Na2CO3 200 mM in water have been added. The reaction mixture has been incubated for 10 min at room temperature and centrifuged for 15 min at 16000 g. The activity has then been quantified by measuring optical density at 414 nm.

[2] = test system: Staphylococcus epidermidis (DSM 3269); settings: 0.3% in CSL, 30° C., reduction from 10^7, 24 h
Procedure: (§1) An EuAB test for antimicrobial activity was performed with Corynebacterium xerosis (DSM 20743), Staphylococcus epidermidis (DSM 3269) and Candida albicans (ATCC 10231). As culture medium CSL (Casein peptone-soybean meal peptone solution), CSA (Casein peptone-soybean meal pepton agar) and Sabouraud-glucose broth/agar was used.
(§2) As dilution liquid NaCl-peptone buffer solution with inactivator (3% Tween 80, 0.3% lecithin, 0.1% histidine and 0.5% Na thiosulfate) was used. Polyglyceryl-3 caprylate was tested in 0.3% (in CSL) concentration. The test solution was prepared one day before investigation. For this, 100 ml of CSL was heated to 60° C. in a water bath. 0.3 g was weighed into 100 ml of CSL at 60° C. The preparations were shaken vigorously by hand and left overnight at 30° C. in an incubator. Corynebacterium xerosis was cultivated over 3 to 4 days. Other microbes were isolated in broth or by elutriation. For each test microbe, 20 ml of each test solution were introduced into sterile 50 ml brown glass bottles with glass beads and contaminated with 0.2 ml of microbe suspension. As controls, 20 ml of CSL were carried over per test microbe without sample.
(§3) The contaminated samples were shaken for 3 min on a shaking machine and kept in an incubator at 30° C. until removed. At the removal points (1, 2, 3, 24 and 48 hours) 1 ml was taken from each preparation and transferred in each case to 9 ml of NaCl-peptone buffer solution with inactivator and the colony number was determined. The 0 hour values given were the colony numbers of the test microbe suspension used taking into consideration the 10^−2 dilution upon sample contamination.

[3] = test system: Corynebacterium xerosis (DSM 20743); settings: 0.3% in CSL, 30° C., reduction from 10^7, 24 h
Procedure: as §1, §2, §3

[4] = test system: Candida albicans (ATCC 10231); settings: 0.3% in CSL, 30° C., reduction from 10^7, 24 h
Procedure: as §1, §2, §3

## CCO [70% ethanol, ethanol]
[1]
  activity: 0.195

## O [water]
[1]
  activity: 0.100

## polyglyceryl-3 caprylate
[2]
  bacteria count (colony number) after 24 h: less than 270
[3]
  bacteria count (colony number) after 24 h: less than 270
[4]
  bacteria count (colony number) after 24 h: less than 270
